# Measured values reported in patent publication US20230330093A1, “APPLICATION OF NITROGEN-CONTAINING SATURATED HETEROCYCLIC COMPOUND” (SHANGHAI PHARMACEUTICALS HOLDING CO., LTD., priority 2020, published 2023).
# System: cynomolgus monkeys
# Experiment: 4-week safety study: necropsy, gross pathology and organ weights;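 note: daily nasogastric dosing for 28 days, organs weighed at necropsy on day 28 or after a 28-day drug-free recovery (day 56), relative weights expressed as percent of body or brain weight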
# Procedure: Cynomolgus monkeys (5/sex/group) were selected using a computerized randomization procedure based on body weight, and the compound of Formula I was administered to the cynomolgus monkeys by nasogastric feeding at dose levels of 0 (control), 20, 100, 450 mg/kg/day in a volume of 5 ml/kg. Individual dose volumes were adjusted weekly based on body weight of animals. For all the groups, 2/3 of the animals were randomly selected and euthanized on day 28. The remaining animals were euthanized after 28-day drug free period.
# A complete gross necropsy was conducted on all animals by visual inspection at the end of the exposure period (day 28) and the recovery phase (day 56). The following selected organs were trimmed, weighed and evaluated in terms of absolute weight and as a percentage of final body weight or brain weight: brain, heart, kidney, liver, spleen, thymus, testes, epididymides, uterus, ovaries, adrenals and thyroid (including the parathyroid). The following tissues were preserved in 10% neutral buffered formalin: brain, pituitary gland, thyroid (including the parathyroid), trachea, heart, pancreas, spleen, adrenal glands, prostate, ovaries, uterus (including cervix uteri and oviduct), vagina, testes, epididymides, seminal vesicle, esophagus, duodenum, jejunum, ileum, cecum, colon, rectum, mesenteric lymph nodes, Peyer's patches, submaxillary lymph nodes, aorta, eyes, skeletal muscle, sciatic nerve, femur (including metaphysis), mammary gland, sternum, salivary glands, spinal cord, urinary bladder, lung (including the bronchi), liver, kidneys, stomach, bone marrow (sternal), thymus, sternum, gallbladder, any gross lesions or masses. The lung tissue was inflated with fixative at the time of necropsy. All the preserved tissues were paraffin embedded, sectioned, stained with hematoxylin and eosin (HE) and examined microscopically. Bone marrow cellular morphology examination was conducted with both smear (sternum) and paraffin-embedded sternum section.
# For each sex, body weight, rectal temperature, ECG, organ weight, hematological parameters and serum biochemical data were analyzed with a statistical software SAS 9.3. Firstly homogeneity of variance was analyzed using Levene's test. If P>0.05, the one-way ANOVA analysis was employed. If P<0.05, the Kruskal-Wallis test was used. If the resulting ANOVA p-value was <0.05, a comparison of each group using the Dunnett T test was performed. If the resulting Kruskal-Wallis test p-value was <0.05, then the Dunnett T test was performed after data rank conversion.
smiles,measurement,setting,value
COC(=O)NCCCn1nc([C@@H](C)N(C(=O)[C@H]2CNCCO2)C2CC2)c2ccc(C)nc21 [compound of Formula I],Liver Absolute weight,"Female, 20 mg/kg, d 28",58.37 ± 7.38 g
same,Liver Relative weight (/body weight),"Female, 20 mg/kg, d 28",2.06 ± 0.22
same,Liver Relative weight (/brain weight),"Female, 20 mg/kg, d 28",90.10 ± 7.72
same,Thymus Absolute weight,"Female, 20 mg/kg, d 28",1.23 ± 0.40 g
same,Thymus Relative weight (/body weight),"Female, 20 mg/kg, d 28",0.04 ± 0.01
same,Thymus Relative weight (/brain weight),"Female, 20 mg/kg, d 28",1.87 ± 0.46
same,Uterus Absolute weight,"Female, 20 mg/kg, d 28",5.97 ± 1.20 g
same,Uterus Relative weight (/body weight),"Female, 20 mg/kg, d 28",0.21 ± 0.04
same,Uterus Relative weight (/brain weight),"Female, 20 mg/kg, d 28",9.19 ± 1.57
same,kidney Absolute weight,"Female, 20 mg/kg, d 28",12.20 ± 2.23 g
same,kidney Relative weight (/body weight),"Female, 20 mg/kg, d 28",0.43 ± 0.07
same,kidney Relative weight (/brain weight),"Female, 20 mg/kg, d 28",18.73 ± 1.74
same,Liver Absolute weight,"Female, 20 mg/kg, d 56",68.35 ± 3.32 g
same,Liver Relative weight (/body weight),"Female, 20 mg/kg, d 56",2.01 ± 0.07
same,Liver Relative weight (/brain weight),"Female, 20 mg/kg, d 56",104.00 ± 10.62
same,Thymus Absolute weight,"Female, 20 mg/kg, d 56",2.00 ± 0.71 g
same,Thymus Relative weight (/body weight),"Female, 20 mg/kg, d 56",0.06 ± 0.02
same,Thymus Relative weight (/brain weight),"Female, 20 mg/kg, d 56",3.07 ± 1.24
same,Uterus Absolute weight,"Female, 20 mg/kg, d 56",11.30 ± 3.25 g
same,Uterus Relative weight (/body weight),"Female, 20 mg/kg, d 56",0.33 ± 0.07
same,Uterus Relative weight (/brain weight),"Female, 20 mg/kg, d 56",17.30 ± 5.86
same,kidney Absolute weight,"Female, 20 mg/kg, d 56",13.75 ± 0.78 g
same,kidney Relative weight (/body weight),"Female, 20 mg/kg, d 56",0.41 ± 0.06
same,kidney Relative weight (/brain weight),"Female, 20 mg/kg, d 56",20.86 ± 0.06
same,Liver Absolute weight,"Female, 100 mg/kg, d 28",57.60 ± 4.25 g
same,Liver Relative weight (/body weight),"Female, 100 mg/kg, d 28",1.96 ± 0.13
same,Liver Relative weight (/brain weight),"Female, 100 mg/kg, d 28",96.55 ± 7.51
same,Thymus Absolute weight,"Female, 100 mg/kg, d 28",0.73 ± 0.50 g
same,Thymus Relative weight (/body weight),"Female, 100 mg/kg, d 28",0.02 ± 0.02
same,Thymus Relative weight (/brain weight),"Female, 100 mg/kg, d 28",1.18 ± 0.73
same,Uterus Absolute weight,"Female, 100 mg/kg, d 28",7.03 ± 0.94 g
same,Uterus Relative weight (/body weight),"Female, 100 mg/kg, d 28",0.24 ± 0.03
same,Uterus Relative weight (/brain weight),"Female, 100 mg/kg, d 28",11.84 ± 2.02
same,kidney Absolute weight,"Female, 100 mg/kg, d 28",11.67 ± 0.71 g
same,kidney Relative weight (/body weight),"Female, 100 mg/kg, d 28",0.40 ± 0.02
same,kidney Relative weight (/brain weight),"Female, 100 mg/kg, d 28",19.61 ± 1.86
same,Liver Absolute weight,"Female, 100 mg/kg, d 56",68.45 ± 20.01 g
same,Liver Relative weight (/body weight),"Female, 100 mg/kg, d 56",1.86 ± 0.37
same,Liver Relative weight (/brain weight),"Female, 100 mg/kg, d 56",104.90 ± 37.06
same,Thymus Absolute weight,"Female, 100 mg/kg, d 56",2.35 ± 0.49 g
same,Thymus Relative weight (/body weight),"Female, 100 mg/kg, d 56",0.07 ± 0.02
same,Thymus Relative weight (/brain weight),"Female, 100 mg/kg, d 56",3.54 ± 0.52
same,Uterus Absolute weight,"Female, 100 mg/kg, d 56",8.30 ± 3.39 g
same,Uterus Relative weight (/body weight),"Female, 100 mg/kg, d 56",0.23 ± 0.12
same,Uterus Relative weight (/brain weight),"Female, 100 mg/kg, d 56",12.44 ± 4.34
same,kidney Absolute weight,"Female, 100 mg/kg, d 56",14.15 ± 2.33 g
same,kidney Relative weight (/body weight),"Female, 100 mg/kg, d 56",0.39 ± 0.03
same,kidney Relative weight (/brain weight),"Female, 100 mg/kg, d 56",21.60 ± 4.92
same,Liver Absolute weight,"Female, 450 mg/kg, d 28",69.40 ± 3.68 g
same,Liver Relative weight (/body weight),"Female, 450 mg/kg, d 28",2.78 ± 0.31
same,Liver Relative weight (/brain weight),"Female, 450 mg/kg, d 28",112.03 ± 12.42
same,Thymus Absolute weight,"Female, 450 mg/kg, d 28",0.50 ± 0.14 g
same,Thymus Relative weight (/body weight),"Female, 450 mg/kg, d 28",0.02 ± 0.01
same,Thymus Relative weight (/brain weight),"Female, 450 mg/kg, d 28",0.81 ± 0.27
same,Uterus Absolute weight,"Female, 450 mg/kg, d 28",3.50 ± 0.14 g
same,Uterus Relative weight (/body weight),"Female, 450 mg/kg, d 28",0.14 ± 0.01
same,Uterus Relative weight (/brain weight),"Female, 450 mg/kg, d 28",5.63 ± 0.10
same,kidney Absolute weight,"Female, 450 mg/kg, d 28",12.95 ± 0.07 g
same,kidney Relative weight (/body weight),"Female, 450 mg/kg, d 28",0.52 ± 0.03
same,kidney Relative weight (/brain weight),"Female, 450 mg/kg, d 28",20.87 ± 1.10
same,Liver Absolute weight,"Female, 450 mg/kg, d 56",72.40 ± 11.74 g
same,Liver Relative weight (/body weight),"Female, 450 mg/kg, d 56",2.04 ± 0.05
same,Liver Relative weight (/brain weight),"Female, 450 mg/kg, d 56",109.03 ± 13.64
same,Thymus Absolute weight,"Female, 450 mg/kg, d 56",1.40 ± 0.14 g
same,Thymus Relative weight (/body weight),"Female, 450 mg/kg, d 56",0.04 ± 0.01
same,Thymus Relative weight (/brain weight),"Female, 450 mg/kg, d 56",2.12 ± 0.29
same,Uterus Absolute weight,"Female, 450 mg/kg, d 56",9.60 ± 2.40 g
same,Uterus Relative weight (/body weight),"Female, 450 mg/kg, d 56",0.27 ± 0.03
same,Uterus Relative weight (/brain weight),"Female, 450 mg/kg, d 56",14.43 ± 3.09
same,kidney Absolute weight,"Female, 450 mg/kg, d 56",14.75 ± 1.91 g
same,kidney Relative weight (/body weight),"Female, 450 mg/kg, d 56",0.42 ± 0.00
same,kidney Relative weight (/brain weight),"Female, 450 mg/kg, d 56",22.23 ± 2.05
same,Liver Absolute weight,"Male, 20 mg/kg, d 28",69.03 ± 2.87 g
same,Liver Relative weight (/body weight),"Male, 20 mg/kg, d 28",1.82 ± 0.21
same,Liver Relative weight (/brain weight),"Male, 20 mg/kg, d 28",103.68 ± 11.79
same,Thymus Absolute weight,"Male, 20 mg/kg, d 28",1.10 ± 0.20 g
same,Thymus Relative weight (/body weight),"Male, 20 mg/kg, d 28",0.03 ± 0.01
same,Thymus Relative weight (/brain weight),"Male, 20 mg/kg, d 28",1.67 ± 0.43
same,kidney Absolute weight,"Male, 20 mg/kg, d 28",14.30 ± 1.42 g
same,kidney Relative weight (/body weight),"Male, 20 mg/kg, d 28",0.37 ± 0.02
same,kidney Relative weight (/brain weight),"Male, 20 mg/kg, d 28",21.46 ± 2.99
same,Liver Absolute weight,"Male, 20 mg/kg, d 56",71.25 ± 1.77 g
same,Liver Relative weight (/body weight),"Male, 20 mg/kg, d 56",1.44 ± 0.02
same,Liver Relative weight (/brain weight),"Male, 20 mg/kg, d 56",100.96 ± 1.74
same,Thymus Absolute weight,"Male, 20 mg/kg, d 56",2.95 ± 0.07 g
same,Thymus Relative weight (/body weight),"Male, 20 mg/kg, d 56",0.06 ± 0.00
same,Thymus Relative weight (/brain weight),"Male, 20 mg/kg, d 56",4.18 ± 0.08
same,kidney Absolute weight,"Male, 20 mg/kg, d 56",16.40 ± 3.11 g
same,kidney Relative weight (/body weight),"Male, 20 mg/kg, d 56",0.33 ± 0.06
same,kidney Relative weight (/brain weight),"Male, 20 mg/kg, d 56",23.16 ± 3.43
same,Liver Absolute weight,"Male, 100 mg/kg, d 28",72.93 ± 14.69 g
same,Liver Relative weight (/body weight),"Male, 100 mg/kg, d 28",1.83 ± 0.25
same,Liver Relative weight (/brain weight),"Male, 100 mg/kg, d 28",100.31 ± 9.48
same,Thymus Absolute weight,"Male, 100 mg/kg, d 28",1.57 ± 0.90 g
same,Thymus Relative weight (/body weight),"Male, 100 mg/kg, d 28",0.04 ± 0.03
same,Thymus Relative weight (/brain weight),"Male, 100 mg/kg, d 28",2.27 ± 1.44
same,kidney Absolute weight,"Male, 100 mg/kg, d 28",15.13 ± 3.62 g
same,kidney Relative weight (/body weight),"Male, 100 mg/kg, d 28",0.37 ± 0.06
same,kidney Relative weight (/brain weight),"Male, 100 mg/kg, d 28",20.85 ± 3.95
same,Liver Absolute weight,"Male, 100 mg/kg, d 56",84.75 ± 5.59 g
same,Liver Relative weight (/body weight),"Male, 100 mg/kg, d 56",1.76 ± 0.06
same,Liver Relative weight (/brain weight),"Male, 100 mg/kg, d 56",115.98 ± 8.59
same,Thymus Absolute weight,"Male, 100 mg/kg, d 56",2.45 ± 0.35 g
same,Thymus Relative weight (/body weight),"Male, 100 mg/kg, d 56",0.05 ± 0.01
same,Thymus Relative weight (/brain weight),"Male, 100 mg/kg, d 56",3.33 ± 0.02
same,kidney Absolute weight,"Male, 100 mg/kg, d 56",17.85 ± 1.91 g
same,kidney Relative weight (/body weight),"Male, 100 mg/kg, d 56",0.37 ± 0.03
same,kidney Relative weight (/brain weight),"Male, 100 mg/kg, d 56",24.36 ± 0.80
same,Liver Absolute weight,"Male, 450 mg/kg, d 28",94.37 ± 12.72 g
same,Liver Relative weight (/body weight),"Male, 450 mg/kg, d 28",2.42 ± 0.20
same,Liver Relative weight (/brain weight),"Male, 450 mg/kg, d 28",135.54 ± 14.14
same,Thymus Absolute weight,"Male, 450 mg/kg, d 28",0.90 ± 0.10 g
same,Thymus Relative weight (/body weight),"Male, 450 mg/kg, d 28",0.02 ± 0.01
same,Thymus Relative weight (/brain weight),"Male, 450 mg/kg, d 28",1.30 ± 0.20
same,kidney Absolute weight,"Male, 450 mg/kg, d 28",16.77 ± 2.31 g
same,kidney Relative weight (/body weight),"Male, 450 mg/kg, d 28",0.43 ± 0.03
same,kidney Relative weight (/brain weight),"Male, 450 mg/kg, d 28",24.07 ± 2.45
same,Liver Absolute weight,"Male, 450 mg/kg, d 56",80.90 ± 4.95 g
same,Liver Relative weight (/body weight),"Male, 450 mg/kg, d 56",1.64 ± 0.22
same,Liver Relative weight (/brain weight),"Male, 450 mg/kg, d 56",119.80 ± 2.56
same,Thymus Absolute weight,"Male, 450 mg/kg, d 56",2.20 ± 0.42 g
same,Thymus Relative weight (/body weight),"Male, 450 mg/kg, d 56",0.04 ± 0.01
same,Thymus Relative weight (/brain weight),"Male, 450 mg/kg, d 56",3.25 ± 0.50
same,kidney Absolute weight,"Male, 450 mg/kg, d 56",18.75 ± 0.21 g
same,kidney Relative weight (/body weight),"Male, 450 mg/kg, d 56",0.38 ± 0.02
same,kidney Relative weight (/brain weight),"Male, 450 mg/kg, d 56",27.81 ± 1.42
same,absolute or relative weight of uterus,high-dose monkeys,lower
same,relative weight of liver and kidney,high-dose monkeys,Higher
same,relative weight of thymus,high-dose monkeys,lower
same,macroscopic findings related to administration,necropsy day 28 / day 56,no macroscopic findings for monkeys deemed related to administration of the test article except mild intestinal tympanites and thymus atrophy for the monkey that died early
